≈ marks a conversion by molar mass, not a printed value.
Tested on: Histophilus somni
Assay: minimum inhibitory concentration (MIC)
Method: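 Broth microdilution MIC (Sensititre BOPO7F bovine plate, CLSI methods) of 19 antimicrobials against field isolates of P. multocida, M. haemolytica, H. somni (deep nasopharyngeal swabs) and E. coli, Enterococcus spp. (rectal swabs) from weaned dairy heifers. Incubation 16-24 h at 35 C. MIC is the lowest concentration preventing visible growth. Values with <= or > lie at the tested range limits. Trimethoprim-sulfamethoxazole is given as the trimethoprim component of a 1:19 mixture.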

NC[C@@H]1O[C@H](O[C@H]2[C@@H](O)[C@H](O[C@@H]3[C@@H](O)[C@H](N)C[C@H](N)[C@H]3O[C@H]3O[C@H](CN)[C@@H](O)[C@H](O)[C@H]3N)O[C@@H]2CO)[C@H](N)[C@@H](O)[C@@H]1O [Neomycin]
Details	minimum inhibitory concentration [µg/mL]
isolate (source animal id): 110	> 32
isolate (source animal id): 117	16 (≈ 26 µM)
isolate (source animal id): 121	16 (≈ 26 µM)
isolate (source animal id): 123	32 (≈ 52.1 µM)
isolate (source animal id): 124	32 (≈ 52.1 µM)
isolate (source animal id): 127	32 (≈ 52.1 µM)
isolate (source animal id): 128	16 (≈ 26 µM)
isolate (source animal id): 130	16 (≈ 26 µM)
isolate (source animal id): 132	16 (≈ 26 µM)
isolate (source animal id): 135	16 (≈ 26 µM)
isolate (source animal id): 140	16 (≈ 26 µM)
isolate (source animal id): 141	16 (≈ 26 µM)
isolate (source animal id): 142	> 32
isolate (source animal id): 144	> 32
isolate (source animal id): 146	> 32
isolate (source animal id): 147	> 32
isolate (source animal id): 151	32 (≈ 52.1 µM)
isolate (source animal id): 153	> 32
isolate (source animal id): 154	> 32
isolate (source animal id): 156	32 (≈ 52.1 µM)
isolate (source animal id): 157	> 32
isolate (source animal id): 176	32 (≈ 52.1 µM)
isolate (source animal id): 183	32 (≈ 52.1 µM)
isolate (source animal id): 186	> 32
isolate (source animal id): 196	> 32
isolate (source animal id): 198	> 32
isolate (source animal id): 200	> 32
isolate (source animal id): 206	> 32
isolate (source animal id): 208	> 32
isolate (source animal id): 210	> 32
isolate (source animal id): 212	32 (≈ 52.1 µM)
isolate (source animal id): 215	> 32
isolate (source animal id): 216	> 32
isolate (source animal id): 218	> 32
isolate (source animal id): 219	> 32
isolate (source animal id): 224	> 32
isolate (source animal id): 228	32 (≈ 52.1 µM)
isolate (source animal id): 230	32 (≈ 52.1 µM)
isolate (source animal id): 233	> 32
isolate (source animal id): 238	16 (≈ 26 µM)
isolate (source animal id): 239	32 (≈ 52.1 µM)
isolate (source animal id): 241	32 (≈ 52.1 µM)
isolate (source animal id): 242	32 (≈ 52.1 µM)
isolate (source animal id): 243	32 (≈ 52.1 µM)
isolate (source animal id): 245	> 32
isolate (source animal id): 246	32 (≈ 52.1 µM)
isolate (source animal id): 247	32 (≈ 52.1 µM)
isolate (source animal id): 248	≤ 4
isolate (source animal id): 250	32 (≈ 52.1 µM)
isolate (source animal id): 251	32 (≈ 52.1 µM)
isolate (source animal id): 252	32 (≈ 52.1 µM)
isolate (source animal id): 254	32 (≈ 52.1 µM)
isolate (source animal id): 258	> 32
isolate (source animal id): 259	> 32
isolate (source animal id): 262	32 (≈ 52.1 µM)
isolate (source animal id): 264	8 (≈ 13 µM)
isolate (source animal id): 265	> 32
isolate (source animal id): 266	> 32
isolate (source animal id): 267	> 32
isolate (source animal id): 269	> 32
isolate (source animal id): 271	> 32
isolate (source animal id): 272	> 32
isolate (source animal id): 274	32 (≈ 52.1 µM)
isolate (source animal id): 276	≤ 4
isolate (source animal id): 278	> 32
isolate (source animal id): 280	> 32
isolate (source animal id): 281	> 32
isolate (source animal id): 283	> 32
isolate (source animal id): 288	> 32
isolate (source animal id): 291	32 (≈ 52.1 µM)
isolate (source animal id): 292	> 32
isolate (source animal id): 296	> 32
isolate (source animal id): 306	> 32
isolate (source animal id): 336	> 32
isolate (source animal id): 337	> 32
isolate (source animal id): 341	> 32
